Data from PubChem BioAssay AID2060494 (Molecular Pharmacology Branch, DTP, NCI, 2025).

System: 435261-313-R-J1-PDC complex spheroid viability
Assay: Anticancer human tumor 435261-313-R-J1-PDC patient-derived colon adenocarcinoma cell line growth inhibition [GQUAD]
Conditions: for IC50: curve of first compound; for viability, T/C: stronger effect = lower value; active = viability on the fitted dose curve at most 10% of control; inactive = the rest
Text: DNA G-quadruplex Stabilizer Agents in Combinations in Complex Spheroids
A high-throughput screen of multi-cell type tumor spheroids was designed to identify active combinations of DNA G-quadruplex stabilizer agents and targeted small molecules. Complex spheroids include a stromal component modeled by human endothelial cells (HUVEC) and fibroblasts modeled by human mesenchymal stem cells (MSCs). The concentration ranges selected for each drug and investigational agent were based upon clinically achievable concentrations if the clinical Cmax of the agent was known.
Compounds. The drugs and investigational agents: pidnarulex (CX-5461; NSC782164), APTO-253 (NSC789042), BRACO-19 (NSC847499), peposertib (NSC802822), ceralasertib (NSC780249), elimusertib (NSC800525), camonsertib (NSC841442), AZD-1390 (NSC803789), olaparib (NSC753686), talazoparib (NSC767125), ART-558 (NSC835418), sotorasib (NSC818433), MRTX-1133 (NSC836407), SN-38 (NSC673596), topotecan (NSC609699), etoposide (NSC141540), doxorubicin (NSC123127), gemcitabine (NSC613327), 5-fluorouracil (NSC19893), paclitaxel (NSC125973), vemurafenib (NSC761431), panobinostat (NSC761190), R-306465 (JNJ-16241199; NSC773264), adavosertib (NSC754352), TP-3654 (NSC805149), carboplatin (NSC241240), KSQ-4279 (NSC840948), and staurosporine (NSC755774) were obtained from the National Cancer Institute (NCI) Developmental Therapeutics Program Chemical Repository (34). The FDA-approved anticancer drug set is available from the NCI Developmental Therapeutics Program. […] The stock solutions were prepared in dimethyl sulfoxide (DMSO, Sigma-Aldrich, St. Louis, MO, cat. D2650) at 800-fold the tested concentration and stored at -70 degrees C prior to their use. All drugs and investigational agents were tested over a range starting from a high concentration at or near the clinical Cmax and decreasing in half-log increments. If the clinical Cmax for an agent had not been determined, the highest concentration tested was 10 microM.
2.3 Cell Culture. All cells were maintained in an incubator at 37 degrees C and 5% CO2 with 95% humidity. The PDC lines were cultured according to standard operating procedures established by the NCI PDMR. All PDCs were thawed and cultured in Matrigel-coated flasks prepared with a working solution of 1X Ham's F-12 nutrient mix, without supplementation (Invitrogen, cat. 11765054), 100 U/mL penicillin-streptomycin (Invitrogen, cat. 15140122), and 2.5% Matrigel (Corning Inc., cat. 354248) for the first three passages. The 857933-349-R-J2-PDC line was cultured in 6C/Colon 1B media, which includes advanced DMEM/F-12 (Thermo Fisher Scientific, cat. 12634028), 10 mM HEPES (Thermo Fisher Scientific, cat. 15630080), 1X GlutaMAX supplement (Thermo Fisher Scientific, cat. 35050061), 0.1 mg/mL primocin (InvivoGen, cat. ant-pm-2), 10% defined fetal bovine serum, heat inactivated (HyClone Laboratories Inc., cat. SH30070.03HI), 50% L-WRN conditioned media (ATCC, cat. CRL-3276), 1.25 mM N-Acetyl-L-cysteine (Sigma-Aldrich, cat. A9165), 10 mM nicotinamide (Sigma-Aldrich, cat. N0636), 1X B-27 supplement (Thermo Fisher Scientific, cat. 17504044), 1X N-2 supplement (Thermo Fisher Scientific, cat. 17502048), 10 microM Y-27632 dihydrochloride (Tocris Bioscience, cat. 1254), and 50 ng/mL human EGF recombinant protein (Thermo Fisher Scientific, cat. PHG0311). The 485176-168-R4-J1-PDC line was cultured in Panc media, which includes all 6C/Colon 1B media components plus 100 ng/mL human FGF-10 (Thermo Fisher Scientific, cat. 100-26), 500 nM SB-431542 (Selleckchem, cat. S1067), and gastrin (Tocris, cat. 3006).
[…]

[1] = second compound 0.0316 µM, first compound 0.0316 µM
[2] = second compound 0.0316 µM, first compound 0.1 µM
[3] = second compound 0.0316 µM, first compound 0.316 µM
[4] = second compound 0.0316 µM, first compound 1 µM
[5] = second compound 0.0316 µM, first compound 3.16 µM
[6] = second compound 0.0316 µM, first compound 10 µM
[7] = second compound 0.1 µM, first compound 0.0316 µM
[8] = second compound 0.1 µM, first compound 0.1 µM
[9] = second compound 0.1 µM, first compound 0.316 µM
[10] = second compound 0.1 µM, first compound 1 µM
[11] = second compound 0.1 µM, first compound 3.16 µM
[12] = second compound 0.1 µM, first compound 10 µM
[13] = second compound 0.316 µM, first compound 0.0316 µM
[14] = second compound 0.316 µM, first compound 0.1 µM
[15] = second compound 0.316 µM, first compound 0.316 µM
[16] = second compound 0.316 µM, first compound 1 µM
[17] = second compound 0.316 µM, first compound 3.16 µM
[18] = second compound 0.316 µM, first compound 10 µM
[19] = second compound 1 µM, first compound 0.0316 µM
[20] = second compound 1 µM, first compound 0.1 µM
[21] = second compound 1 µM, first compound 0.316 µM
[22] = second compound 1 µM, first compound 1 µM
[23] = second compound 1 µM, first compound 3.16 µM
[24] = second compound 1 µM, first compound 10 µM
[25] = second compound 3.16 µM, first compound 0.0316 µM
[26] = second compound 3.16 µM, first compound 0.1 µM
[27] = second compound 3.16 µM, first compound 0.316 µM
[28] = second compound 3.16 µM, first compound 1 µM
[29] = second compound 3.16 µM, first compound 3.16 µM
[30] = second compound 3.16 µM, first compound 10 µM
[31] = second compound 10 µM, first compound 0.0316 µM
[32] = second compound 10 µM, first compound 0.1 µM
[33] = second compound 10 µM, first compound 0.316 µM
[34] = second compound 10 µM, first compound 1 µM
[35] = second compound 10 µM, first compound 3.16 µM
[36] = second compound 10 µM, first compound 10 µM
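Also: spheroids exposed to the agents for seven days before readout.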
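For viability, T/C in this document: percent of vehicle control viability with DMSO wells as 100%.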

COc1ccc([C@@H](O)c2cc(-c3ncnc4cc(N5CCOCC5)ccc34)c(F)cc2Cl)nn1 + CN(C)c1ccc(Nc2c3ccc(NC(=O)CCN4CCCC4)cc3nc3cc(NC(=O)CCN4CCCC4)ccc23)cc1
0.451 µM: IC50 (second compound 3.16 µM)
0.134 µM: IC50 (second compound 10 µM)
4.3 µM: IC50 (second compound 0.1 µM)
4.19 µM: IC50 (second compound 0.0316 µM)
2.27 µM: IC50 (second compound 1 µM)
active: viability, T/C [34] 14.7% | viability, T/C [35] 8.59% | viability, T/C [36] 5.21%
inactive: viability, T/C [1] 99% | viability, T/C [2] 120% | viability, T/C [3] 108% | viability, T/C [4] 83.9% | viability, T/C [5] 56.6% | viability, T/C [6] 35.8% | viability, T/C [7] 107% | viability, T/C [8] 100% | viability, T/C [9] 85.3% | viability, T/C [10] 68.9% | viability, T/C [11] 57.9% | viability, T/C [12] 35.5% | viability, T/C [13] 94.3% | viability, T/C [14] 137% | viability, T/C [15] 79.7% | viability, T/C [16] 63.9% | viability, T/C [17] 55.3% | viability, T/C [18] 26.7% | viability, T/C [19] 72% | viability, T/C [20] 76.4% | viability, T/C [21] 70.9% | viability, T/C [22] 64.5% | viability, T/C [23] 44.2% | viability, T/C [24] 23.9% | viability, T/C [25] 59.7% | viability, T/C [26] 48% | viability, T/C [27] 69% | viability, T/C [28] 30% | viability, T/C [29] 24.6% | viability, T/C [30] 11.5% | viability, T/C [31] 56.1% | viability, T/C [32] 59.8% | viability, T/C [33] 26.9%
2.38 µM: IC50 (second compound 0.316 µM)

O=C(c1cc(Cc2n[nH]c(=O)c3ccccc23)ccc1F)N1CCN(C(=O)C2CC2)CC1 + CN(C)c1ccc(Nc2c3ccc(NC(=O)CCN4CCCC4)cc3nc3cc(NC(=O)CCN4CCCC4)ccc23)cc1
inactive: viability, T/C [1] 96% | viability, T/C [2] 133% | viability, T/C [3] 84.8% | viability, T/C [4] 80.8% | viability, T/C [5] 123% | viability, T/C [6] 89.4% | viability, T/C [7] 101% | viability, T/C [8] 83.7% | viability, T/C [9] 118% | viability, T/C [10] 102% | viability, T/C [11] 90% | viability, T/C [12] 81.9% | viability, T/C [13] 109% | viability, T/C [14] 92.5% | viability, T/C [15] 97.8% | viability, T/C [16] 84.2% | viability, T/C [17] 85.2% | viability, T/C [18] 69.9% | viability, T/C [19] 85% | viability, T/C [20] 78% | viability, T/C [21] 70.1% | viability, T/C [22] 70% | viability, T/C [23] 95.8% | viability, T/C [24] 69.2% | viability, T/C [25] 80.5% | viability, T/C [26] 53.2% | viability, T/C [27] 66.8% | viability, T/C [28] 60% | viability, T/C [29] 77.4% | viability, T/C [30] 57.6% | viability, T/C [31] 37.3% | viability, T/C [32] 46.2% | viability, T/C [33] 31% | viability, T/C [34] 49.3% | viability, T/C [35] 36.4% | viability, T/C [36] 32.9%
> 10 µM: IC50 (second compound 0.0316 µM) | IC50 (second compound 0.1 µM) | IC50 (second compound 0.316 µM) | IC50 (second compound 1 µM) | IC50 (second compound 3.16 µM)
< 0.0316 µM: IC50 (second compound 10 µM)
